One assay concerns the target T1, human renin (Homo sapiens, UniProt P00797).
T1 construct: purchased National Institute for Biological Standards, London
T1 sequence (P00797 67-406): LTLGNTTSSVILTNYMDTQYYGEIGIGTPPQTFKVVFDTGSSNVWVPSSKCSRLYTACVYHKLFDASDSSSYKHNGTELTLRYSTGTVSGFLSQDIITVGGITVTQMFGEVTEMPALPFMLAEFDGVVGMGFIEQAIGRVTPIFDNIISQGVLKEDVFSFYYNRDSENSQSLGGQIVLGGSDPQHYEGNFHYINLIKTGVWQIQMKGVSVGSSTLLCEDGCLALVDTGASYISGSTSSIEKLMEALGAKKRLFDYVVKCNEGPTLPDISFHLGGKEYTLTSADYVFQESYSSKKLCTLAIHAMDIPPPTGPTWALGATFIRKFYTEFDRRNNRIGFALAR
Kind of assay: Human Renin Inhibition in vitro (angiotensin I produced, by radioimmunoassay). The format is biochemical. The note with it: pH 7.4, 37° C., two hours, human plasma. As for the experimental part:
Compounds of Formula I were evaluated as inhibitors of human renin in an in vitro assay, as follows: This human renin inhibition test has been previously described in detail [Papaioannou et al., Clinical and Experimental Hypertension, A7(9), 1243-1257 (1985)]. Human renin was obtained from the National Institute for Biological Standards, London. An incubation mixture was prepared containing the following components: in a total volume of 0.25 mL: 100 mM Tris-acetate buffer at pH 7.4, 25×10^-6 Goldblatt units of renin, 0.05 mL of plasma from human volunteers taking oral contraceptives, 6.0 mM Na-EDTA, 2.4 mM phenylmethyl sulfonyl fluoride, 1.5 mM 8-hydroxyquinoline, 0.4 mg/mL bovine serum albumin (BSA), and 0.024 mg/mL neomycin sulfate. This mixture was incubated for two hours at 37° C. in the presence or absence of renin inhibitors. The produced angiotensin I was determined by radioimmunoassay (New England Nuclear kit). Test compounds to be assayed were dissolved in DMSO and diluted with 100mM Tris-acetate buffer at pH 7.4 containing 0.5% BSA to the appropriate concentration. The final concentration of organic solvent in the reaction mixture was less than 1%. Control incubations at 37° C. were used to correct for effects of organic solvent on renin activity.

The next assay relates to pepsin. The note with it: cited from earlier work.
Another assay has as its system hog renin. As to conditions: after the injection of hog renin into nephrectomized rats; cited from earlier work.
A further assay deals with cathepsin D. The note with it: cited from earlier work.
The subject of a further assay is renin. As to conditions: cited from earlier work.

This is an account of results in US5563154A, “Tetrahydro-quinolinyl/isoquinolinyl-terminal alkylamino ethynyl alanine amino diol compounds for treatment of hypertension” (G. D. Searle & Co., priority 1995, dated 1996).

SMILES strings stand for the structures. Non-standard residues stand in square brackets, D forms with d. Residues, ends and D or L forms follow the SMILES beside them. *: point of attachment. Sta = CC(C)C[C@H](N)[C@@H](O)CC(=O)O; Isovaleryl = CC(C)CC(=O)*

Regarding `C#CC[C@H](NC(=O)[C@@H](CC(=O)N(C)CCc1ccccn1)Cc1ccccc1)C(=O)N[C@@H](CC1CCCCC1)[C@@H](O)[C@@H](O)CC(C)C` (relative stereo) [Example 1, N^1-[1R*-[[[1S, 1R*- (cyclohexylmethyl)-2S*, 3R*-dihydroxy-5-methylhexyl]amino]carbonyl]-3-butynyl]-N^4-methyl-2S*-(phenylmethyl)-N^4-[2-(2-pyridinyl)ethyl]butanediamide], half-maximal inhibition against human renin (IC50) was put at 0.15 nM.

As for `CC(C)CC(=O)N[C@H](C(=O)N[C@H](C(=O)N[C@@H](CC(C)C)[C@@H](O)CC(=O)N[C@@H](C)C(=O)N[C@@H](CC(C)C)[C@@H](O)CC(=O)O)C(C)C)C(C)C` [pepstatin] (Isovaleryl-VV[Sta]A[Sta]-OH), the inhibitor of pepsin entry in the assay with pepsin is on record as “inhibitor”. Also, the “reduce blood pressure in vivo” value in the assay on hog renin is “reduce blood pressure in vivo”. In addition, the “inhibitor of cathepsin D” value with cathepsin D is reported as “inhibitor”. In the assay on renin, the inhibitor of renin entry is reported as “inhibitor”.

In general, IC50 refers to the midpoint of a concentration-inhibition curve. Low values mean greater potency in that assay, high ones weaker potency in that assay.
